Laboratory results from PubChem BioAssay (NCI).
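Compound exposure: 48 hours, 5 concentrations, 96-well plates. Abbreviation: GI50, concentration required for 50% inhibition of growth. TGI is the concentration that stops growth completely.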

What was measured:
Experiment in all cases: NCI tumour cell line growth inhibition, 48 h
[1] = tested on: 786-0 renal
[2] = tested on: A498 renal
[3] = tested on: A549 NSCLC
[4] = tested on: ACHN renal
[5] = tested on: BT-549 breast
[6] = tested on: CAKI-1 renal
[7] = tested on: CCRF-CEM leukemia
[8] = tested on: COLO 205 colon
[9] = tested on: DU-145 prostate
[10] = tested on: EKVX NSCLC
[11] = tested on: HCC-2998 colon
[12] = tested on: HCT-116 colon
[13] = tested on: HCT-15 colon
[14] = tested on: HL-60(TB) leukemia
[15] = tested on: HOP-62 NSCLC
[16] = tested on: HOP-92 NSCLC
[17] = tested on: HS 578T breast
[18] = tested on: HT29 colon
[19] = tested on: IGROV1 ovarian
[20] = tested on: K-562 leukemia
[21] = tested on: KM12 colon
[22] = tested on: LOX IMVI melanoma
[23] = tested on: M14 melanoma
[24] = tested on: MALME-3M melanoma
[25] = tested on: MCF7 breast
[26] = tested on: MDA-MB-231 breast
[27] = tested on: MDA-MB-435
[28] = tested on: MOLT-4 leukemia
[29] = tested on: NCI-H226 lung
[30] = tested on: NCI-H23 lung
[31] = tested on: NCI-H460 lung
[32] = tested on: NCI-H522 lung
[33] = tested on: NCI/ADR-RES ovarian
[34] = tested on: OVCAR-3 ovarian
[35] = tested on: OVCAR-4 ovarian
[36] = tested on: OVCAR-5 ovarian
[37] = tested on: OVCAR-8 ovarian
[38] = tested on: PC-3 prostate
[39] = tested on: RPMI-8226 leukemia
[40] = tested on: RXF 393 renal
[41] = tested on: SF-268 CNS
[42] = tested on: SF-295 CNS
[43] = tested on: SF-539 CNS
[44] = tested on: SK-MEL-2 melanoma
[45] = tested on: SK-MEL-28 melanoma
[46] = tested on: SK-MEL-5 melanoma
[47] = tested on: SK-OV-3 ovarian
[48] = tested on: SN12C renal
[49] = tested on: SNB-19 CNS
[50] = tested on: SNB-75 CNS
[51] = tested on: SR leukemia
[52] = tested on: SW-620 colon
[53] = tested on: T-47D breast
[54] = tested on: TK-10 renal
[55] = tested on: U251 CNS
[56] = tested on: UACC-257 melanoma
[57] = tested on: UACC-62 melanoma
[58] = tested on: UO-31 renal

Molecule `NC(CSC(c1ccccc1)(c1ccccc1)c1ccc2ccccc2c1)C(=O)O` (centres undefined) has a GI50 [1] of 76.3 nM, a TGI [1] of 1190 nM and a GI50 [2] of 52.9 nM. The TGI [2] was 3790 nM, the GI50 [3] was 95 nM and the TGI [3] was 26400 nM. It also gave a GI50 [4] of 911 nM, a TGI [4] of 30800 nM and a GI50 [5] of 144 nM. For the same molecule, the TGI [5] was 22800 nM, the GI50 [6] was 99.8 nM and the TGI [6] was 34600 nM. It also gave a GI50 [7] of 37.2 nM, a TGI [7] of over 39400 nM and a GI50 [8] of 81.6 nM. The TGI [8] was 875 nM, the GI50 [9] was 98.6 nM and the TGI [9] was 333 nM. It also gave a GI50 [10] of 136 nM, a TGI [10] of 26300 nM and a GI50 [11] of 37.4 nM. It also gave a TGI [11] of 496 nM, a GI50 [12] of 31.2 nM and a TGI [12] of 958 nM. The GI50 [13] was 175 nM, the TGI [13] was 23700 nM and the GI50 [14] was 49.3 nM. For the same molecule, the GI50 [15] was 114 nM, the TGI [15] was 14400 nM and the GI50 [16] was 215 nM. It also gave a TGI [16] of 23200 nM, a GI50 [17] of 26.7 nM and a TGI [17] of 83.2 nM. For the same molecule, the GI50 [18] was 200 nM, the TGI [18] was over 100000 nM and the GI50 [19] was 124 nM. The TGI [19] was 21600 nM, the GI50 [20] was 46.1 nM and the TGI [20] was over 100000 nM. For the same molecule, the GI50 [21] was 80.4 nM, the TGI [21] was 3210 nM and the GI50 [22] was 172 nM. The TGI [22] was 18100 nM, the GI50 [23] was 21.1 nM and the TGI [23] was 51.2 nM. It also gave a GI50 [24] of 1330 nM, a TGI [24] of 25400 nM and a GI50 [25] of 32.1 nM. For the same molecule, the TGI [25] was 21900 nM, the GI50 [26] was 69.5 nM and the TGI [26] was 5000 nM. For the same molecule, the GI50 [27] was 18 nM, the TGI [27] was 36.3 nM and the GI50 [28] was 290 nM. The TGI [28] was over 33800 nM, the GI50 [29] was 9270 nM and the TGI [29] was 24500 nM. It also gave a GI50 [30] of 131 nM, a TGI [30] of 16400 nM and a GI50 [31] of 48.5 nM. It also gave a TGI [31] of 12100 nM, a GI50 [32] of 39.2 nM and a TGI [32] of 1490 nM. It also gave a GI50 [33] of 989 nM, a TGI [33] of 3640 nM and a GI50 [34] of 28.7 nM. It also gave a TGI [34] of 99.2 nM, a GI50 [35] of 13100 nM and a TGI [35] of 33200 nM. It also gave a GI50 [36] of 323 nM, a TGI [36] of 16900 nM and a GI50 [37] of 80.4 nM. For the same molecule, the TGI [37] was 21300 nM, the GI50 [38] was 62.8 nM and the TGI [38] was over 82700 nM. For the same molecule, the GI50 [39] was 32.7 nM, the GI50 [40] was 57.2 nM and the TGI [40] was 21500 nM. The GI50 [41] was 51.7 nM, the TGI [41] was 13700 nM and the GI50 [42] was 24.6 nM. It also gave a TGI [42] of 2640 nM, a GI50 [43] of 38.4 nM and a TGI [43] of 3070 nM. For the same molecule, the GI50 [44] was 1290 nM, the TGI [44] was 30000 nM and the GI50 [45] was 380 nM. The TGI [45] was 16000 nM, the GI50 [46] was 43.8 nM and the TGI [46] was 11500 nM. The GI50 [47] was 80.6 nM, the TGI [47] was 29600 nM and the GI50 [48] was 87.4 nM. The TGI [48] was 18200 nM, the GI50 [49] was 66 nM and the TGI [49] was 17300 nM. The GI50 [50] was 121 nM, the TGI [50] was 30600 nM and the GI50 [51] was 86.9 nM. It also gave a TGI [51] of over 40500 nM, a GI50 [52] of 38.1 nM and a TGI [52] of 11600 nM. The GI50 [53] was 132 nM, the TGI [53] was 18000 nM and the GI50 [54] was 524 nM. For the same molecule, the TGI [54] was 23600 nM, the GI50 [55] was 40.8 nM and the TGI [55] was 12100 nM. It also gave a GI50 [56] of 9670 nM, a TGI [56] of 34300 nM and a GI50 [57] of 62.8 nM. For the same molecule, the TGI [57] was 13600 nM, the GI50 [58] was 3100 nM and the TGI [58] was 24300 nM.
